Measured values taken from ChEMBL document CHEMBL6134868, “Novel Aryl Sulfonium Modification on Vancomycin to Tackle MRSA and VRE In Vitro and In Vivo through Dual Enhanced Cell-Wall and Membrane Inhibition” (J Med Chem, 2025).
In brackets after ≈: the same amount, converted by molar mass. Activity calls are given as the source filed them. The calls are words filed in the database; no cut-off is given here.

Columns and labels:
[1] = test system: Enterococcus faecium; assay: Antibacterial activity against vancomycin-resistant Enterococcus faecium Efm-HS-0649 harboring VanA phenotype incubated for 16 to 24 hrs by broth microdilution assay; format: functional; settings: time 16-24 hrs
[2] = test system: Staphylococcus aureus; assay: Induction of membrane permeability in methicillin-resistant Staphylococcus aureus USA300 LAC by fluorescence based analysis; format: functional, organism-based; settings: dose 2.67-170 µg/ml
[3] = Acute toxicity in mouse assessed as animal suvival at 40 mg/kg, iv measured for 7 days; format: organism-based; settings: in vivo, 168 h, time 7 day
[4] = Clearance in CD-1 mouse at 5 mg/kg, iv measured for 0.05 to 24 hrs by UPLC analysis; format: ADME, organism-based; settings: in vivo, time 0.05-24 hrs
[5] = Cytotoxicity against mouse AML12 cells assessed as cell viability at 50 mg/L incubated for 72 hrs by CCK8 assay relative to control; format: toxicity, cell-based; settings: at 50 µg/mL, read-out: Activity
[6] = test system: Escherichia coli; assay: Antibacterial activity against Escherichia coli AB1157 incubated for 16 to 24 hrs by broth microdilution assay; format: functional; settings: time 16-24 hrs
[7] = AUC (infinity) in CD-1 mouse at 5 mg/kg, iv measured for 0.05 to 24 hrs by UPLC analysis; format: ADME, organism-based; settings: in vivo, time 0.05-24 hrs
[8] = test system: Staphylococcus aureus; assay: Antibacterial activity against methicillin-resistant Staphylococcus aureus USA300 LAC infected in female BALB/c mouse assessed as animal survival rate at 7 mg/kg, iv measured for 7 days consecutively relative to control; format: functional
[9] = test system: Enterococcus faecium; assay: Antibacterial activity against vancomycin-resistant Enterococcus faecium Efm-HS-08257 harboring VanM phenotype incubated for 16 to 24 hrs by broth microdilution assay; format: functional; settings: time 16-24 hrs
[10] = test system: Enterococcus faecium; assay: Antibacterial activity against vancomycin-resistant Enterococcus faecium Efm-HS-vb02 harboring VanB phenotype incubated for 16 to 24 hrs by broth microdilution assay; format: functional; settings: time 16-24 hrs
[11] = test system: Enterococcus faecium; assay: Antibacterial activity against vancomycin-resistant Enterococcus faecium SC-2022-D2-059 harboring VanA phenotype infected in ICR mouse assessed as animal survival rate at 10 to 20 mg/kg, iv measured for 7 days relative to control; format: functional; settings: dose 10-20 mg/kg, time 7 day
[12] = test system: Klebsiella pneumoniae; assay: Antibacterial activity against Klebsiella pneumoniae KP-1 incubated for 16 to 24 hrs by broth microdilution assay; format: functional; settings: time 16-24 hrs
[13] = test system: Acinetobacter baumannii; assay: Antibacterial activity against carbapenem-resistant Acinetobacter baumannii CRAB-1 clinical isolate incubated for 16 to 24 hrs by broth microdilution assay; format: functional; settings: time 16-24 hrs
[14] = AUClast in CD-1 mouse at 5 mg/kg, iv measured for 0.05 to 24 hrs by UPLC analysis; format: ADME, organism-based; settings: in vivo, time 0.05-24 hrs
[15] = MRT (infinity) in CD-1 mouse at 5 mg/kg, iv measured for 0.05 to 24 hrs by UPLC analysis; format: ADME, organism-based; settings: in vivo, time 0.05-24 hrs
[16] = Cytotoxicity against HK-2 cells assessed as cell viability at 50 mg/L incubated for 72 hrs by CCK8 assay relative to control; format: toxicity, cell-based; settings: human, at 50 µg/mL, read-out: Activity
[17] = test system: Enterococcus faecium; assay: Antibacterial activity against vancomycin-resistant Enterococcus faecium SC-2022-D2-059 harboring VanA phenotype infected in ICR mouse assessed as animal survival rate at 5 mg/kg, iv measured for 7 days relative to control; format: functional; settings: SC-2022-D2-059, 168 h, time 7 day
[18] = Volume of distribution at steady state in CD-1 mouse at 5 mg/kg, iv measured for 0.05 to 24 hrs by UPLC analysis; format: ADME, organism-based; settings: in vivo, time 0.05-24 hrs, read-out: Vdss
[19] = test system: Bacteria; assay: Antibacterial activity against Gram-positive bacteria incubated for 16 to 24 hrs by broth microdilution assay; format: functional; settings: time 16-24 hrs
[20] = test system: Staphylococcus aureus; assay: Dissipation of membrane potential in methicillin-resistant Staphylococcus aureus USA300 LAC at 1.3 to 170 ug/ml by DiSC3(5) dye based analysis; format: functional, organism-based; settings: dose 1.3-170 µg/ml
[21] = Drug concentration in CD-1 mouse at 5 mg/kg, iv measured after 8 hrs; format: ADME, organism-based; settings: in vivo, read-out: Drug uptake
[22] = test system: Staphylococcus aureus; assay: Inhibition of peptidoglycan biosynthesis in methicillin-resistant Staphylococcus aureus USA300 LAC assessed as fold increase in accumulation of Park's nucleotide at 5 ug/ml incubated for 2 hrs by RP-HPLC analysis; format: functional; settings: dose 5 µg/ml
[23] = test system: Staphylococcus aureus; assay: Antibacterial activity against vancomycin-intermediate Staphylococcus aureus Mu50 incubated for 16 to 24 hrs by broth microdilution assay; format: functional; settings: time 16-24 hrs
[24] = test system: Enterococcus faecium; assay: Antibacterial activity against vancomycin-resistant Enterococcus faecium SC-2022-D2-059 harboring VanA phenotype incubated for 16 to 24 hrs by broth microdilution assay; format: functional; settings: time 16-24 hrs
[25] = Hemolytic activity against rat erythrocytes at 100 ug/ml incubated for 1 hr by absorbance based assay; format: toxicity, cell-based, Erythrocyte
[26] = test system: Acinetobacter baumannii; assay: Induction of outer membrane permeability in carbapenem-resistant Acinetobacter baumannii CRAB-1 clinical isolate by NPN dye based analysis; format: functional, organism-based; settings: dose 1.33-170 µg/ml
[27] = test system: Enterococcus faecium; assay: Antibacterial activity against vancomycin-resistant Enterococcus faecium Efm-HS-vb01 harboring VanB phenotype incubated for 16 to 24 hrs by broth microdilution assay; format: functional; settings: time 16-24 hrs
[28] = test system: Acinetobacter baumannii; assay: Antibacterial activity against Acinetobacter baumannii ATCC19606 incubated for 16 to 24 hrs by broth microdilution assay; format: functional; settings: time 16-24 hrs
[29] = test system: Pseudomonas aeruginosa; assay: Antibacterial activity against Pseudomonas aeruginosa PAO1 incubated for 16 to 24 hrs by broth microdilution assay; format: functional; settings: time 16-24 hrs
[30] = test system: Staphylococcus aureus; assay: Antibacterial activity against methicillin-resistant Staphylococcus aureus USA300 LAC incubated for 16 to 24 hrs by broth microdilution assay; format: functional; settings: time 16-24 hrs
[31] = Half life in CD-1 mouse at 5 mg/kg, iv measured for 0.05 to 24 hrs by UPLC analysis; format: ADME, organism-based; settings: in vivo, time 0.05-24 hrs
[32] = test system: Staphylococcus aureus; assay: Antibacterial activity against methicillin-resistant Staphylococcus aureus […] infected in CD-1 mouse model assessed as animal survival rate at 7 mg/kg, iv measured for 15 days relative to control; format: functional; settings: 360 h, time 15 day
[33] = test system: Staphylococcus aureus; assay: Antibacterial activity against vancomycin-intermediate Staphylococcus aureus XN108 infected in CD-1 mouse model assessed as animal survival rate at 7 mg/kg, iv measured for 15 days relative to control; format: functional; settings: XN108, 360 h, time 15 day
[34] = test system: Staphylococcus aureus; assay: Antibacterial activity against methicillin-resistant Staphylococcus aureus USA300 LAC infected in mouse model; format: functional
[35] = Protein binding in plasma (unknown origin); format: ADME, cell-free; settings: read-out: PPB (converted)
[36] = test system: Enterococcus faecium; assay: Antibacterial activity against vancomycin-resistant Enterococcus faecium SC-2022-D2-059 harboring VanA phenotype infected in ICR mouse assessed as animal survival rate at 20 mg/kg, iv measured for 7 days relative to control; format: functional; settings: SC-2022-D2-059, 168 h, time 7 day

SMILES: CN[C@H](CC(C)C)C(=O)N[C@H]1C(=O)N[C@@H](CC(N)=O)C(=O)N[C@H]2C(=O)N[C@H]3C(=O)N[C@H](C(=O)N[C@H](C(=O)O)c4cc(O)c(CNCCC[S+](C)CC(O)COc5ccc(-c6ccc(C(F)(F)F)cc6)cc5)c(O)c4-c4cc3ccc4O)[C@H](O)c3ccc(c(Cl)c3)Oc3cc2cc(c3O[C@@H]2O[C@H](CO)[C@@H](O)[C@H](O)[C@H]2O[C@H]2C[C@](C)(N)[C@H](O)[C@H](C)O2)Oc2ccc(cc2Cl)[C@H]1O.O=C([O-])C(F)(F)F (stereo not given in full)
- MIC [1]: 0.5 µg/mL
- Activity [2]: Dose-dependent-effect
- Activity [3]: Non-toxic
- clearance [4]: 2.28 mL/min/kg
- viability at 72 h, 50 mg/L [5]: ~100%
- MIC [6]: 8 µg/mL
- AUC(0-inf) [7]: 42000 ng·h/mL
- survival at 7 mg/kg ([8]; 168 h, time 7 day): 100%
- MIC [9]: 2 µg/mL
- MIC [10]: ≤ 0.063 µg/mL
- Survival [11]: 100%
- MIC [12]: 128 µg/mL
- MIC [13]: 32 µg/mL
- AUC(0-t) [14]: 41600 ng·h/mL
- MRT inf [15]: 3.98 h
- viability at 72 h, 50 mg/L [16]: ~100%
- survival at 5 mg/kg [17]: 50%
- Vd [18]: 0.566 L/kg
- MIC [19]: ≤ 0.063 µg/mL
- Activity [20]: Active
- concentration at 8 h [21]: ~700 ng/mL
- fold change (FC) [22]: <=3
- MIC [23]: 0.125 µg/mL
- MIC [24]: 0.12 µg/mL
- Activity ([25]; erythrocyte, 1 h, dose 100 µg/ml): Toxic
- Activity [26]: Active
- MIC [27]: ≤ 0.063 µg/mL
- MIC [28]: 16 µg/mL
- MIC [29]: > 128 µg/mL
- MIC [30]: 0.031 µg/mL
- half-life [31]: 3.57 h

SMILES: CCCCCCCCC(O)C[S+](C)CCCNCc1c(O)cc2c(c1O)-c1cc(ccc1O)[C@H]1NC(=O)[C@@H]3NC(=O)[C@H](CC(N)=O)NC(=O)[C@H](NC(=O)[C@@H](CC(C)C)NC)[C@H](O)c4ccc(c(Cl)c4)Oc4cc3cc(c4O[C@@H]3O[C@H](CO)[C@@H](O)[C@H](O)[C@H]3O[C@H]3C[C@](C)(N)[C@H](O)[C@H](C)O3)Oc3ccc(cc3Cl)[C@@H](O)[C@H](NC1=O)C(=O)N[C@@H]2C(=O)O.O=C([O-])C(F)(F)F (stereo not given in full)
- MIC [1]: 8 µg/mL
- survival at 7 mg/kg [32]: 86.7%
- clearance [4]: 12 mL/min/kg
- MIC [6]: 32 µg/mL
- survival at 7 mg/kg [33]: 80%
- AUC(0-inf) [7]: 7080 ng·h/mL
- MIC [9]: 2 µg/mL
- Efficacy [34]: 53.3%
- MIC [10]: 1 µg/mL
- MIC [12]: > 128 µg/mL
- AUC(0-t) [14]: 7050 ng·h/mL
- MRT inf [15]: 0.931 h
- Vd [18]: 0.672 L/kg
- MIC [23]: 0.25 µg/mL
- MIC [27]: ≤ 0.063 µg/mL
- MIC [29]: > 128 µg/mL
- MIC [30]: ≤ 0.063 µg/mL
- half-life [31]: 1.13 h

SMILES: CN[C@H](CC(C)C)C(=O)N[C@H]1C(=O)N[C@@H](CC(N)=O)C(=O)N[C@H]2C(=O)N[C@H]3C(=O)N[C@H](C(=O)N[C@H](C(=O)O)c4cc(O)cc(O)c4-c4cc3ccc4O)[C@H](O)c3ccc(c(Cl)c3)Oc3cc2cc(c3O[C@@H]2O[C@H](CO)[C@@H](O)[C@H](O)[C@H]2O[C@H]2C[C@](C)(N)[C@H](O)[C@H](C)O2)Oc2ccc(cc2Cl)[C@H]1O [VANCOMYCIN]
- MIC [1]: > 128 µg/mL
- MIC [6]: > 128 µg/mL
- Activity ([8]; time 7.0 day): inactive
- MIC [9]: > 128 µg/mL
- MIC [10]: 16 µg/mL (≈ 11 µM)
- fraction unbound [35]: 0.9
- MIC [12]: > 128 µg/mL
- MIC [13]: > 128 µg/mL
- survival at 20 mg/kg [36]: 0%
- MIC [23]: 8 µg/mL (≈ 5.52 µM)
- MIC [24]: ≥ 128 µg/mL
- hemolysis at 1 h, 100 ug/ml ([25]; erythrocytes, at 100 µg/mL, read-out: Activity): ~6%
- MIC [27]: > 128 µg/mL
- MIC [28]: > 128 µg/mL
- MIC [29]: > 128 µg/mL

SMILES: CCCCCCCCCCNCCN[C@@]1(C)C[C@H](O[C@H]2[C@H](Oc3c4cc5cc3Oc3ccc(cc3Cl)[C@@H](O)[C@@H](NC(=O)[C@@H](CC(C)C)NC)C(=O)N[C@@H](CC(N)=O)C(=O)N[C@H]5C(=O)N[C@H]3C(=O)N[C@H](C(=O)N[C@H](C(=O)O)c5cc(O)c(CNCP(=O)(O)O)c(O)c5-c5cc3ccc5O)[C@H](O)c3ccc(c(Cl)c3)O4)O[C@H](CO)[C@@H](O)[C@@H]2O)O[C@@H](C)[C@H]1O [TELAVANCIN]
- fraction unbound [35]: 0.1
